Molecular target: T1, Polyunsaturated fatty acid 5-lipoxygenase (Homo sapiens, UniProt P09917)
T1 sequence (P09917 whole entry): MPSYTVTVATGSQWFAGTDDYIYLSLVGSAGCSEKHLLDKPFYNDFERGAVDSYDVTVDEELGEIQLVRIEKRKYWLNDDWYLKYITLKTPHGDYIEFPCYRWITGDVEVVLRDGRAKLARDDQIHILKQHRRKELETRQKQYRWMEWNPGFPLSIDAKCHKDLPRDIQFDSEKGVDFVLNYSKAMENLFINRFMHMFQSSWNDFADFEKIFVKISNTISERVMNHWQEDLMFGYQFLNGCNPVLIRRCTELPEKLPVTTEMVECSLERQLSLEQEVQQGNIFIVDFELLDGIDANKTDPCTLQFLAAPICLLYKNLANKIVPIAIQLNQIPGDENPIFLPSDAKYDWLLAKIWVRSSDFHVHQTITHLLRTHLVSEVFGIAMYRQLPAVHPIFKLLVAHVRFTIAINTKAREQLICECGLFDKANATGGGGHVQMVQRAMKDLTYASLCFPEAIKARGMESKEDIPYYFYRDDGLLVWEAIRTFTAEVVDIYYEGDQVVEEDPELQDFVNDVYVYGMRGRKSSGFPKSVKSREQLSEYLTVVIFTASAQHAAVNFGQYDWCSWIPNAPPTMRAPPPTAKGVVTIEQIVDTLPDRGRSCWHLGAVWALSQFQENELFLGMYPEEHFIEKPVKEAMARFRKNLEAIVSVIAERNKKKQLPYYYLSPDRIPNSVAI
Experiment: Inhibition of lipoxygenase 5 product formation from endogenous substrate in Calcium and ionophore-stimulated polymorphonuclear leukocyte

| IC50 | SMILES |
| --- | --- |
| 750 nM | CC(=O)O[C@@H]1CC[C@]2(C)C3=CC=C4[C@@H]5[C@@H](C)[C@H](C)CC[C@]5(C)CC[C@@]4(C)[C@]3(C)CC[C@H]2[C@@]1(C)C(=O)O |
| 3000 nM | C[C@H]1[C@H](C)CC[C@]2(C)CC[C@]3(C)C(=CC(=O)[C@@H]4[C@@]5(C)CC[C@@H](O)[C@](C)(C(=O)O)[C@@H]5CC[C@]43C)[C@H]12 [11-KETO BOSWELLIC ACID] |
| 2700 nM | CC(=O)O[C@@H]1CC[C@@]2(C)[C@@H](CC[C@]3(C)[C@@H]2C(=O)C=C2[C@@H]4[C@@H](C)[C@H](C)CC[C@]4(C)CC[C@]23C)[C@@]1(C)C(=O)O [AKBA] |
